Results on four compounds are retold here after ChEMBL document CHEMBL1201862, “PubChem BioAssay data set” (2004).

The target of assay [1] is T1, Eukaryotic translation initiation factor 4H (Homo sapiens, UniProt Q15056). The experiment in a line: eIF4H binding inhibition – biochemical, uHTS, fluorescence polarization, translation initiation inhibitor project, primary screen (AID 2012).
The target in assay [2] is T2, Polyadenylate-binding protein 1 (Homo sapiens, UniProt P11940). Put plainly: blockers of PABP interaction with poly(A) – biochemical, fluorescence polarization, […] (AID 2014).
For assay [3], the target named is T1, Eukaryotic translation initiation factor 4H. Put plainly: inhibitors of translation initiation factor eIF4H – SAR follow-up (AID 435011). The assay is classed as functional.
For assay [4], the target named is T2, Polyadenylate-binding protein 1. The experiment in a line: PABP inhibition in translation initiation, SAR follow-up (AID 435018). The assay is classed as functional.
Assay [5] can be described thus: Counterscreen for IDE inhibitors: Luminescence-based cell-based high throughput dose response assay to identify compounds that are cytotoxic to HEK cells. [Related pubchem assays: 434962 (Primary screen (IDE inhibitors in singlicate)), 449730 (Counterscreen (Cytotoxicity in triplicate)), 435028 (Confirmation (IDE inhibitors in triplicate)) …. The format is functional. As to conditions: HEK293.

The next assay concerns the target T3, Insulin-degrading enzyme (Homo sapiens, UniProt P14735).
T3 sequence (P14735 whole entry): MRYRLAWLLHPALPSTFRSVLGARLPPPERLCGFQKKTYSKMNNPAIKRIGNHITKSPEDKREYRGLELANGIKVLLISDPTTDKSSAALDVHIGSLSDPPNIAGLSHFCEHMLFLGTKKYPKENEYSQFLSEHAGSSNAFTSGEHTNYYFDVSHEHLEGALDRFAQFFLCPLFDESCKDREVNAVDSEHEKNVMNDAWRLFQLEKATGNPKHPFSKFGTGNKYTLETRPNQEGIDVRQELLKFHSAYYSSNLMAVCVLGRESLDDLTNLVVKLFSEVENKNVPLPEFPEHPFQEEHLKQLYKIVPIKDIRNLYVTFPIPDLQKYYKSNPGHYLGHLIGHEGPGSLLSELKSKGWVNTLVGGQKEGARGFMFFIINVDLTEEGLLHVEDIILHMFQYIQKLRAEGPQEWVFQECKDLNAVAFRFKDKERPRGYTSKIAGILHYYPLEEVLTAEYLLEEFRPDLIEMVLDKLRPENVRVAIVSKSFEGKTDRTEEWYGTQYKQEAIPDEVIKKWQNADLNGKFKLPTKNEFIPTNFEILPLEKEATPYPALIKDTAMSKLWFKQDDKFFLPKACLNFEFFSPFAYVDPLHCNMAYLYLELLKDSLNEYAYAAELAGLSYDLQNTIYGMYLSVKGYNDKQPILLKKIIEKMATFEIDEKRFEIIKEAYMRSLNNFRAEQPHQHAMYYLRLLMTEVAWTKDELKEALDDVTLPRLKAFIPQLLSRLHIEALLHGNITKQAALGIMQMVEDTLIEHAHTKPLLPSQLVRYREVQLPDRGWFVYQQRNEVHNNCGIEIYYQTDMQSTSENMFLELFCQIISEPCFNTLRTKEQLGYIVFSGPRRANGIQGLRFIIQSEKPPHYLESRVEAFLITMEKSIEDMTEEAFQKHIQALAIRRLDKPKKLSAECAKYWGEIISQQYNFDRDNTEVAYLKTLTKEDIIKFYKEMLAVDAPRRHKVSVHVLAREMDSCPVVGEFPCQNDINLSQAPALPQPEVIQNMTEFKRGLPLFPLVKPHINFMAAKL
The experiment in a line: Dose Response: Fluorescence polarization-based cell-based high throughput dose response assay for inhibitors of insulin-degrading enzyme (IDE). [Related pubchem assays: 434962 (Primary screen (IDE inhibitors in singlicate)), 449730 (Counterscreen (Cytotoxicity in triplicate)), 435028 (Confirmation (IDE inhibitors in triplicate)), 434984 (Summary …. The format is functional.

Assay [6] deals with T4, Neuropeptides B/W receptor type 1 (Homo sapiens, UniProt P48145).
T4 sequence (P48145 whole entry): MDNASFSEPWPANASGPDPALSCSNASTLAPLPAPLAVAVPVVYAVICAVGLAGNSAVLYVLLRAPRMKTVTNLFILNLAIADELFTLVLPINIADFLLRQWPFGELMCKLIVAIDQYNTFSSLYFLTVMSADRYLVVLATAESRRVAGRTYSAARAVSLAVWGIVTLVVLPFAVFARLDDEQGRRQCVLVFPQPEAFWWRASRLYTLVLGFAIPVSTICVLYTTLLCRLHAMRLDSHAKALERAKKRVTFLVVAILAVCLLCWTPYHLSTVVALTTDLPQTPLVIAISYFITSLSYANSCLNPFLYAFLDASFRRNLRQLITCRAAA
Put plainly: Fluorescence-based dose response cell-based high throughput screening assay to identify antagonists of the G-protein coupled receptor 7 (GPR7). [Related pubchem assays: 1952 (Screening assay (GPR7 antagonists).), 1880 (Summary AID.)]. The assay is classed as functional.

Assay [7] concerns the target Melanin-concentrating hormone receptor 1 (Homo sapiens, UniProt Q99705). The experiment in a line: Fluorescence-based counterscreen for antagonists of the G-protein coupled receptor 7 (GPR7): cell-based high throughput dose response assay to identify antagonists of the melanin-concentrating hormone receptor 1 (MCHR1). The assay is classed as functional.
Assay [8] concerns Streptococcus sp. 'group A'. The experiment in a line: Streptococcus pyogenes SK(-)GAS viability under kanamycin – luminescence, BacTiterGlo, confirmation, counter-screen for streptokinase expression inhibitor project, dose response (AID 1900). The format is functional, organism-based.
For assay [9], the system named is Streptococcus. The experiment in a line: Luminescence Microorganism-Based Dose Response Follow up to Identify Compounds Cytotoxic to Streptococcus. [Related pubchem assays: 1677 (Project Summary), 1915, 1914, 1902 (Retest at Dose), 1900 (Counter Screen), 1662 (Primary HTS)]. The format is functional, organism-based.
The next assay deals with T5, Streptokinase A (Streptococcus pyogenes serotype M1, UniProt P10520).
T5 sequence (P10520 whole entry): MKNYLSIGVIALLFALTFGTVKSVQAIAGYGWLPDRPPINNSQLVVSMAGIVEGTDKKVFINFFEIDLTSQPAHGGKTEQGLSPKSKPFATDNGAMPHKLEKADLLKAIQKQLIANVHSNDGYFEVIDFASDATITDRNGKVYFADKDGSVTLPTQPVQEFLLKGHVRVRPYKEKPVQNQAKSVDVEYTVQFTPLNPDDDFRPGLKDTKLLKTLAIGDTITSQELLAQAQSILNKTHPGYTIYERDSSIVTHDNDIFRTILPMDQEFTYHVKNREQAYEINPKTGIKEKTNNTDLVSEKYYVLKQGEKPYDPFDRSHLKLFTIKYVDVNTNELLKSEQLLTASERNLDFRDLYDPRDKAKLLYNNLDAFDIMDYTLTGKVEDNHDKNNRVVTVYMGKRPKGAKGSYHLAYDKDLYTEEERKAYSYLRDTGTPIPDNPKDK
Put plainly: viability-normalized secreted streptokinase activity reduction – plasminogen activation absorbance, OD405, dose response (AID 1914).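 Also: secreted streptokinase activity via plasminogen activation per viability signal from cell pellet.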 The assay is classed as functional, Streptococcus pyogenes M1 GAS.

Assay [10] concerns Streptococcus. Put plainly: GAS UMAA2166 growth inhibition – luminescence, BacTiterGlo, counter-screen for streptokinase expression inhibitor project, dose response (AID 1915).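 Also: potency for reduction of bacterial viability or growth.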 The assay is classed as functional, organism-based.

Active and inactive are the calls of the source.

T2 sequence (P11940 whole entry): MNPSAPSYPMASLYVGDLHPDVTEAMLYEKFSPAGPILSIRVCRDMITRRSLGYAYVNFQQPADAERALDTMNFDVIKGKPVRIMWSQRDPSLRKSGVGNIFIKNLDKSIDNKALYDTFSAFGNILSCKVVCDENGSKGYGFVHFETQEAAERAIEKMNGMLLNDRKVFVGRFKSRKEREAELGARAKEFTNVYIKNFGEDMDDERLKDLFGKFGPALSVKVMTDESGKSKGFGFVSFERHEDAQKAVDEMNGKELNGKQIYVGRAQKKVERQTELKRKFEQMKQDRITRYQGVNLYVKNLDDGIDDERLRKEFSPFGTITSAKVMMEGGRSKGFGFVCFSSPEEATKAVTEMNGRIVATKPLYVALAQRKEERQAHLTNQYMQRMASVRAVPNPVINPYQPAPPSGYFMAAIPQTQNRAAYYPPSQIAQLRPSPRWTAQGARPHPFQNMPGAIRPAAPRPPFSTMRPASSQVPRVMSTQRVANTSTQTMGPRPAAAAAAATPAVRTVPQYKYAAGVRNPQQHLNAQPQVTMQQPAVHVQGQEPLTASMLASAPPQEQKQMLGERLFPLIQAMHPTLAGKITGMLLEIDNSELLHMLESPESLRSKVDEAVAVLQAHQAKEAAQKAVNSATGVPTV
Sequence of Melanin-concentrating hormone receptor 1 (Q99705 whole entry): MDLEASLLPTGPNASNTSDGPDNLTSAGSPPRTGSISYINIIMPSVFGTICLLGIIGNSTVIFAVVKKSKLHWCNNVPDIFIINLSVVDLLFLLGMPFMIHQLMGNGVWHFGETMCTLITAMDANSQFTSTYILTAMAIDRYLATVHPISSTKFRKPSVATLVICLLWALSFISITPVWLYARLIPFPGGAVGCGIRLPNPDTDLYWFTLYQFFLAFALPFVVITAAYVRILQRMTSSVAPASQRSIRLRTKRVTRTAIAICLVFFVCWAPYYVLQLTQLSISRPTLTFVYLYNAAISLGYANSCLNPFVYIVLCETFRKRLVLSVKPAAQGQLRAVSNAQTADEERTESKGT

`Cc1ccc(OC(C)C(=O)Nc2ccc3c(c2)n(C)c(=O)n3C)c(C)c1` (configuration not stated): the IC50 in assay [1] is > 100 µM (inactive); in [2], 16.2 µM (active); in assay [3], 35 µM (active); in [4], 4.39 µM (active).
As for `CCOc1ccc(N2C(=O)S/C(=C\c3ccc(O)c(OC)c3)C2=O)cc1`, the IC50 was > 55.7 µM (not active) in [5] and 29.8 µM (not active) on Insulin-degrading enzyme.
With `COC(=O)C(O)(c1ccc(N(C)C(=O)c2ccc(Cl)c(Cl)c2)cc1)C(F)(F)F` (configuration not stated), the IC50 in assay [6] was > 14.6 µM (not active); in assay [7], 15 µM (not active).
For the compound `Cn1c(=O)c2c(nc(SCc3ccccc3)n2Cc2ccc(Cl)cc2)n(C)c1=O`, the EC50 is 7.96 µM (active) in [8], > 500 µM (not active) with Streptococcus [9], 10.7 µM (active) on Streptokinase A and > 150 µM (not active) in the assay with Streptococcus [10].
